From patent publication US20130109682A1, “CYCLIC ETHER COMPOUNDS USEFUL AS KINASE INHIBITORS” (NOVARTIS AG, priority 2010, published 2013)

Key:
[1] = system: KMS11 (human myeloma cell line); test: Cell proliferation assay (CellTiter-Glo), KMS11; type: cell-based; conditions: KMS11-Luc cells
Protocol: KMS11 (human myeloma cell line), were cultured in IMDM supplemented with 10% FBS, sodium pyruvate and antibiotics. Cells were plated in the same medium at a density of 2000 cells per well into 96 well tissue culture plates, with outside wells vacant, on the day of assay. MMl.s (human myeloma cell line), were cultured in RPMI1640 supplemented with 10% FBS, sodium pyruvate and antibiotics. Cells were plated in the same medium at a density of 5000 cells per well into 96 well tissue culture plates, with outside wells vacant, on the day of assay.
Test compounds supplied in DMSO were diluted into DMSO at 500 times the desired final concentrations before dilution into culture media to 2 times final concentrations. Equal volumes of 2× compounds were added to the cells in 96 well plates and incubated at 37° C. for 3 days.
After 3 days plates were equilibrated to room temperature and equal volume of CellTiter-Glow Reagent (Promega) was added to the culture wells. The plates were agitated briefly and luminescent signal was measured with luminometer.
Using the procedures of Cell Proliferation Assay, the EC50 concentration of indicated compounds of the examples in were determined in KMS11 cells as shown in Table 4.

PIM2 = PIM2 (Homo sapiens, UniProt Q9P1W9); test: KinaseGlo Pim2 ATP depletion assay; type: biochemical
PIM2, sequence (Q9P1W9 whole entry): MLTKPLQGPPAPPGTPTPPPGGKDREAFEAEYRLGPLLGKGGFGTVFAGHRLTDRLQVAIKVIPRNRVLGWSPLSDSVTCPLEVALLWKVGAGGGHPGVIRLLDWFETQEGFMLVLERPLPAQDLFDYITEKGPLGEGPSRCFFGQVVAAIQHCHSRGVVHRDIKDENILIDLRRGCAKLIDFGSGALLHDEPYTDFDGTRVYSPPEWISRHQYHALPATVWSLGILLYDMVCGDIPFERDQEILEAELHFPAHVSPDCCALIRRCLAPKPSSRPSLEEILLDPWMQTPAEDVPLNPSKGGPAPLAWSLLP
Procedure, shortened: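 Compound sat 15 min with enzyme and BAD peptide before ATP was added; final levels 5 nM PIM2, 10 μM peptide, 4 μM ATP, 2.5% DMSO, pH 7.5 HEPES buffer with MgCl2, DTT, BSA. Stopped near 50% ATP consumption; remaining ATP measured by luciferase luminescence.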

PIM3 = PIM3 (Homo sapiens, UniProt Q86V86); test: KinaseGlo Pim3 ATP depletion assay; type: biochemical
Procedure, shortened: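 Residual ATP was detected by luciferase luminescence once about half had been consumed. The reaction contained 5 nM enzyme, 100 μM BAD peptide (RSRHSSYPAGT) and 40 μM ATP in 50 mM HEPES pH 7.5, 5 mM MgCl2, 1 mM DTT and 0.05% BSA with 2.5% DMSO. Compound and enzyme/peptide were premixed 15 min before ATP.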

GSK3β = GSK3β (Homo sapiens, UniProt P49841); test: GSK3β ATP depletion assay; type: biochemical; conditions: read-out: GSK3b IC50
GSK3β, sequence (P49841 whole entry, species assumed): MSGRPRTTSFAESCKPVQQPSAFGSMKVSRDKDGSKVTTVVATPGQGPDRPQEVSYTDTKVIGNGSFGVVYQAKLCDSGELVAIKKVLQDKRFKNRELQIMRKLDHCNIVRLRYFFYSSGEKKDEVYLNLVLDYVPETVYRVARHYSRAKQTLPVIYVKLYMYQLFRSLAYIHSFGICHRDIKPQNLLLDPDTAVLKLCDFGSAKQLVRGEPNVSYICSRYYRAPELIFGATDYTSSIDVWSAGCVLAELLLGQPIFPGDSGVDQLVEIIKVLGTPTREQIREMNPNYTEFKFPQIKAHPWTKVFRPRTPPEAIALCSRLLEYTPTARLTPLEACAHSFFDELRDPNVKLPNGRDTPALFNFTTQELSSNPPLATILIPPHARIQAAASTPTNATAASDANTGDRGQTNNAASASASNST
Procedure, shortened: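 Kinase activity is read as ATP consumption: luciferase luminescence reports the ATP remaining once roughly half of the 2 μM ATP is used. Reaction mix: 5 nM GSK3β, 10 μM b-CREB peptide, 50 mM Tris pH 7.5, 15 mM MgCl2, 1 mM DTT, 0.1% BSA, 2.5% DMSO. Enzyme and peptide are preincubated 15 min before ATP is added.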

PIM1 = PIM1 (Homo sapiens, UniProt P11309); test: KinaseGlo Pim1 ATP depletion assay; type: biochemical
PIM1, sequence (P11309 whole entry): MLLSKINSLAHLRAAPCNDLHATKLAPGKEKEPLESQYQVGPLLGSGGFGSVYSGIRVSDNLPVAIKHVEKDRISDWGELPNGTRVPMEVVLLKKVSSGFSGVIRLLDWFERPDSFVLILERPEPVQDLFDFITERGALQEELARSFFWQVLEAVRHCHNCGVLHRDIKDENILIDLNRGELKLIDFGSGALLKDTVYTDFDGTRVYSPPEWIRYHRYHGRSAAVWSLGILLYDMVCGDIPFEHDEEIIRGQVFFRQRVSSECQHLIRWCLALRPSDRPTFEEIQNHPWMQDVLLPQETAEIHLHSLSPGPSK
Procedure, shortened: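 IC50 is derived from residual ATP measured by KinaseGlo Plus luminescence once about half the ATP was consumed. Final conditions were 20 μM ATP, 40 μM BAD peptide and 2.5 nM kinase in HEPES pH 7.5 buffer with MgCl2, DTT and BSA, plus 2.5% DMSO. Compound and enzyme were premixed 15 min before ATP addition.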

| SMILES | EC50 ([1]; Homo sapiens, KMS-11) [nM] | IC50 (PIM2) [nM] | IC50 (PIM3) [nM] | IC50 (GSK3β) [nM] | IC50 (PIM1) [nM] | EC50 [1] [nM] |
| --- | --- | --- | --- | --- | --- | --- |
| CC[C@H]1O[C@@H](c2ccncc2NC(=O)c2nc(-c3nccs3)ccc2N)C[C@@H](O)[C@@H]1O [Example 140, 3-amino-N-(4-((2R,4R,5S,6R)-6-ethyl-4,5-dihydroxytetrahydro-2H-pyran-2-yl)pyridin-3-yl)-6-(thiazol-2-yl)picolinamide] | > 10000 | 54 | 19 | 2250 | 18 |  |
| C=C1[C@H](O)C[C@H](c2ccncc2NC(=O)c2ccc(F)c(-c3c(F)cccc3F)n2)OC12CC2 [Example 9, 6-(2,6-difluorophenyl)-5-fluoro-N-(4-((5R,7R)-7-hydroxy-8-methylene-4-oxaspiro[2.5]octan-5-yl)pyridin-3-yl)picolinamide] | > 10000 | 154 | 25 | 453 | 4.9 |  |
| Nc1cnc(-c2c(F)cccc2F)nc1C(=O)Nc1cnccc1[C@@H]1C[C@H](O)[C@]2(O)CCC[C@@H]2O1 [Example 182, 5-amino-2-(2,6-difluorophenyl)-N-(4-((2S,4S,4aR,7aS)-4,4a-dihydroxyoctahydrocyclopenta[b]pyran-2-yl)pyridin-3-yl)pyrimidine-4-carboxamide] | > 10000 | 2780 | 951 | 2670 | 539 |  |
| N#CC[C@H]1O[C@@H](c2ccncc2NC(=O)c2nc(-c3c(F)cccc3F)c(F)cc2N)C[C@@H](O)[C@@H]1O [Example 152, 3-amino-N-(4-((2R,4R,5S,6R)-6-(cyanomethyl)-4,5-dihydroxytetrahydro-2H-pyran-2-yl)pyridin-3-yl)-6-(2,6-difluorophenyl)-5-fluoropicolinamide] |  | 5.4 | 2.3 | 450 | 1.3 | > 10000 |
| CCC[C@H]1O[C@@H](c2ccncc2NC(=O)c2nc(-c3c(F)cccc3F)ncc2N)C[C@@H](O)[C@@H]1O [Example 169, 5-amino-2-(2,6-difluorophenyl)-N-(4-((2R,4R,5S,6R)-4,5-dihydroxy-6-propyltetrahydro-2H-pyran-2-yl)pyridin-3-yl)pyrimidine-4-carboxamide] | > 10000 | 9.3 | 13.2 | 1660 | 14.4 |  |
| CC(C)NC(=O)c1ccc(F)c(-c2nc(C(=O)Nc3cnccc3[C@H]3C[C@@H](O)[C@](C)(O)[C@@H](C)O3)ccc2F)c1 [Example 105, N-(4-((2R,4R,5S,6R)-4,5-dihydroxy-5,6-dimethyltetrahydro-2H-pyran-2-yl)pyridin-3-yl)-5-fluoro-6-(2-fluoro-5-(isopropylcarbamoyl)phenyl)picolinamide] | 4700 | 50 | 6 | 1180 | 1 |  |
| O=C(Nc1cnccc1[C@H]1C[C@@H](O)[C@H](O)[C@@H](CO)O1)c1ccc(F)c(-c2c(F)cccc2F)n1 [Example 83, 6-(2,6-difluorophenyl)-N-(4-((2R,4R,5S,6R)-4,5-dihydroxy-6-(hydroxymethyl)tetrahydro-2H-pyran-2-yl)pyridin-3-yl)-5-fluoropicolinamide] | > 10000 | 291 | 32 | 2800 | 19 |  |
| Nc1cnc(-c2c(F)cccc2F)nc1C(=O)Nc1cnccc1[C@@H]1C[C@H](O)[C@@H](O)[C@H](C2CC2)O1 [Example 205, 5-amino-N-(4-((2S,4S,5R,6S)-6-cyclopropyl-4,5-dihydroxytetrahydro-2H-pyran-2-yl)pyridin-3-yl)-2-(2,6-difluorophenyl)pyrimidine-4-carboxamide] | > 10000 | 45.4 | 69.7 | 1870 | 37.3 |  |
| C[C@H]1O[C@@H](c2ccncc2NC(=O)c2nc(-c3c(F)cccc3F)ncc2N)C[C@@H](O)[C@]1(C)O [Example 146, 5-amino-2-(2,6-difluorophenyl)-N-(4-((2R,4R,5S,6R)-4,5-dihydroxy-5,6-dimethyltetrahydro-2H-pyran-2-yl)pyridin-3-yl)pyrimidine-4-carboxamide] | > 10000 | 9.5 | 5.1 | 345 | 5.7 |  |
| O=C(Nc1cnccc1[C@@H]1C[C@@H](O)[C@H](O)[C@@H](CO)O1)c1ccc(F)c(-c2c(F)cccc2F)n1 [Example 78, 6-(2,6-difluorophenyl)-N-(4-((2S,4R,5S,6R)-4,5-dihydroxy-6-(hydroxymethyl)tetrahydro-2H-pyran-2-yl)pyridin-3-yl)-5-fluoropicolinamide] | 1500 | 2520 | 151 | 5820 | 127 |  |
| O=C(Nc1cnccc1[C@@H]1C[C@H](O)[C@]2(O)CCC[C@@H]2O1)c1c[nH]cc(-c2ccccc2)c1=O [Example 184, N-(4-((2S,4S,4aR,7aS)-4,4a-dihydroxyoctahydrocyclopenta[b]pyran-2-yl)pyridin-3-yl)-4-oxo-5-phenyl-1,4-dihydropyridine-3-carboxamide] | > 10000 | > 25000 | > 25000 | > 25000 | > 25000 |  |
| CC[C@]1(O)[C@H](O)C[C@H](c2ccncc2NC(=O)c2nc(-c3ccnnc3)ccc2N)O[C@@H]1C [Example 160, 3-amino-N-(4-((2R,4R,5S,6R)-5-ethyl-4,5-dihydroxy-6-methyltetrahydro-2H-pyran-2-yl)pyridin-3-yl)-6-(pyridazin-4-yl)picolinamide] | > 10000 | 1640 | 260 | 67.4 | 166 |  |
| C[C@@H]1OC(c2ccncc2NC(=O)c2nc(-c3c(F)cccc3F)ncc2N)=C[C@H](O)[C@@]1(C)O [Example 10, 5-amino-2-(2,6-difluorophenyl)-N-(4-((2S,3R,4S)-3,4-dihydroxy-2,3-dimethyl-3,4-dihydro-2H-pyran-6-yl)pyridin-3-yl)pyrimidine-4-carboxamide] | 8630 | 40 | 20.6 | 1470 | 18.6 |  |
| C[C@H]1[C@H](C)O[C@H](c2ccncc2NC(=O)c2csc(-c3c(F)cccc3F)n2)C[C@@H]1O (stereo in doubt) [Example 94, 2-(2,6-difluorophenyl)-N-(4-((2S,4S,5R,6S)-4-hydroxy-5,6-dimethyltetrahydro-2H-pyran-2-yl)pyridin-3-yl)thiazole-4-carboxamide] | 4200 | 246 | 9 | 11 | 1 |  |
| C=C[C@H]1OC(c2ccncc2NC(=O)c2nc(-c3c(F)cccc3F)ncc2N)=C[C@@H](O)[C@@H]1O [Example 144, 5-amino-2-(2,6-difluorophenyl)-N-(4-((2R,3S,4R)-3,4-dihydroxy-2-vinyl-3,4-dihydro-2H-pyran-6-yl)pyridin-3-yl)pyrimidine-4-carboxamide] | 4340 | 3.7 | 4.3 | 394 | 5.3 |  |
| C[C@H]1OC(c2ccncc2NC(=O)c2nc(-c3c(F)cccc3F)ncc2N)=C[C@@H](O)[C@]1(C)O [Example 11, 5-amino-2-(2,6-difluorophenyl)-N-(4-((2R,3S,4R)-3,4-dihydroxy-2,3-dimethyl-3,4-dihydro-2H-pyran-6-yl)pyridin-3-yl)pyrimidine-4-carboxamide] | 718 | 1.4 | 1.8 | 718 | 0.7 |  |
| CC1(C)O[C@@H](c2ccncc2NC(=O)c2csc(-c3c(F)cccc3F)n2)C[C@H](O)[C@@H]1O [Example 88, 2-(2,6-difluorophenyl)-N-(4-((2R,4S,5S)-4,5-dihydroxy-6,6-dimethyltetrahydro-2H-pyran-2-yl)pyridin-3-yl)thiazole-4-carboxamide] | 9700 | 80 | 5 | 10 | 1 |  |
